Literature values in US6759057B1, “Methods and compositions using liposome-encapsulated non-steroidal anti-inflammatory drugs” (The Liposome Company, Inc., priority 1986, dated 2004).

Tested on: rat stomach mucosa
Details: rats dosed with Prostaglandin E2

CCCCC[C@H](O)/C=C/[C@H]1[C@H](O)CC(=O)[C@@H]1C/C=C\CCCC(=O)O [Prostaglandin E2]
increase in the major gastric surface protective surfactant: 2-6 fold
